# Reference: US8343475B2, “Small cationic antimicrobial peptides” (priority 2006, dated 2013)
# Residues, ends and D or L forms follow the SMILES beside them.
# Columns and labels:
# [1] = tested on: Pseudomonas aeruginosa PAO1 strain H103; assay type: cell-based; details: PAO1
# Summary of the method: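 Modified broth microdilution MIC in Mueller Hinton medium, peptides diluted in 0.01% acetic acid/0.2% BSA, polypropylene plates. Inoculum 2-7×10^5 CFU/ml, overnight at 37 °C; MIC is the lowest concentration with no visible growth.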
# [2] = tested on: Enterococcus faecalis ATCC29212; assay type: cell-based; details: ATCC29212
# Summary of the method: (§1)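 First, peptides were serially diluted at ten times final strength in 0.01% acetic acid with 0.2% BSA. These were then added to Mueller Hinton medium and inoculated with overnight-grown organisms at 2-7×10^5 CFU/ml. After overnight incubation at 37° C, the MIC was scored as the concentration without growth.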
# Escherichia coli UB1005 = assay type: cell-based; details: indolicidin substitution variants (Table 4)
# Summary of the method: as §1
# [3] = tested on: Staphylococcus aureus ATCC25923; assay type: cell-based; details: ATCC25923
# Summary of the method: as §1
# [4] = tested on: clinical isolate of Staphylococcus epidermidis; assay type: cell-based; details: clinical isolate of
# Summary of the method: as §1
# [5] = tested on: lab isolate of Candida albicans; assay type: cell-based; details: lab isolate of
# Summary of the method: as §1
# [6] = tested on: wild-type Salmonella enterica ssp. typhimurium; assay type: cell-based
# Summary of the method: as §1
# [7] = tested on: LPS-stimulated TNFα production in THP-1 cells; experiment: Suppression of P. aeruginosa LPS-stimulated TNFα production (ELISA); assay type: cell-based, human; details: 10 ng/ml P. aeruginosa LPS, peptides at 10, 20 and 50 μg/ml (FIG. 13)
# Experimental: FIG. 12. Assessment of the ability of peptides to suppress P. aeruginosa LPS (10 ng/ml)-stimulated TNFα production in THP1 cells. Presented results are the mean values for 4 wells performed on 2 separate occasions. The x-axis number labeling is the amount of each peptide in μg/ml for the corresponding peptides.
# FIG. 13. Suppression of inflammatory responses by peptides. Monocyte/macrophage-like adherent THP-1 cells were stimulated with 10 ng/ml P. aeruginosa LPS and the resulting TNFα response measured. Peptides were added at 10, 20 and 50 μg/ml. The observed TNF-release was measured by ELISA and related to the 100% value of the untreated (without peptide) cells.
# Cytotoxicity and TNFα suppression assay. THP1 cells were cultured in RPMI 1640 medium (supplemented with 10% (v/v) FCS, 1% L-glutamine, and […] sodium pyruvate) in E-toxa-clean (Sigma-Aldrich, Oakville, Ontario, Canada)-washed, endotoxin-free bottle. THP1 cells were counted and 250 μl per well of […] were transferred into a 96 well tissue cultured treated polystyrene microtiterplate (Beckton Dickinson, Franklin Lakes, USA). In addition PMA were added (1.3 nM) and the cells were incubated for three days. After three days the medium were exchanged and Pseudomonas aeruginosa LPS and the peptides were added. The incubation time was four hours and the supernatant was frozen at −20° C. The cells were stained with Tryphan Blue for 2 minutes and washed with PBS two times. The viability of the cells was determined by counting the stained cells over the unstained. The supernatent was used to measure the TNFα production by an ELISA (eBioscience, San Diego, USA) following the manufactures protocol.
# LPS from P. aeruginosa strain H103 was highly purified free of proteins and lipids using the Darveau-Hancock method. Briefly, P. aeruginosa was grown overnight in LB broth at 37° C. Cells were collected and washed and the isolated LPS pellets were extracted with a 2:1 chloroform:methanol solution to remove contaminating lipids. Purified LPS samples were quantitated using an assay for the specific sugar 2-keto-3-deoxyoctosonic acid (KDO assay) and then resuspended in endotoxin-free water (Sigma-Aldrich).
# Human monocytic cells, THP-1, were obtained from American type culture collection, ATCC® (TIB-202) and were grown in suspension in RPMI-1640 media (Gibco®, Invitrogen™ Life technologies, Burlington, ON), supplemented with 10% (v/v) heat inactivated fetal bovine serum (FBS), 2 mM L-glutamine and 1 mM sodium pyruvate (all from Invitrogen Life Technologies). Cultures were maintained at 37° C. in a humidified 5% (v/v) CO2 incubator up to a maximum of six passages. THP-1 cells at a density of 1×10^6 cells/ml were treated with 0.3 μg/ml phorbol 12-myristate 13-acetate (PMA; Sigma-Aldrich Canada, Oakville ON) for 24 hours, inducing plastic-adherent cells that were further rested in complete RPMI-1640 medium for an additional 24 hours prior to stimulation with various treatments including P. aeruginosa LPS (10 ng/ml) with or without peptides for 24 hours after which supernatants were collected and TNFα assessed by ELISA.
# THP-1 cells were stimulated with LPS (10 ng/ml) with or without peptide (10 or 100 μg/ml) for 4 hours as indicated in the results section. Following incubation of the cells under various treatment regimens, the tissue culture supernatants were centrifuged at 1000×g for 5 min, then at 10,000×g for 2 min to obtain cell-free samples. Supernatants were aliquoted and then stored at −20° C. prior to assay for various cytokines. TNFα secretion was detected with a capture ELISA (eBioscience and BioSource International Inc., CA, USA respectively).
# [8] = tested on: clinical isolates of MRSA; assay type: cell-based, Staphylococcus aureus
# Summary of the method: (§2)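 Modified broth microdilution in Mueller Hinton medium, peptides serially diluted in 0.01% acetic acid with 0.2% BSA in polypropylene plates. Inoculum 2-7×10^5 CFU/ml, overnight incubation at 37° C; MIC taken as lowest concentration with no visible growth.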
# ESBL E. cloacae = assay type: cell-based, Enterobacter cloacae
# Summary of the method: as §2
# [9] = tested on: Liverpool Epidemic Strains; assay type: cell-based, Pseudomonas aeruginosa
# Summary of the method: as §2
# S. aureus = experiment: Mouse model of aggressive bacterial infection (intraperitoneal); assay type: in vivo; details: 1.6×10^10 CFU IP; 4 mg/kg peptide IP four hours post infection; total infection time 24 hours; saline controls 100% death
# Experimental: FIG. 10. Ability of new antimicrobial peptides HHC-10 and HHC-36 to protect mice against Staph aureus infections. Bacterial loads in the peritoneal lavage from individual mice after 24 hours of infection are shown (solid circles). Dead animals were assigned the highest colony forming unit (CFU) count obtained in the experiment. The solid line represents the arithmetic mean for each group.
# (§3) FIG. 18. […] Mice were treated with 1.6×10^10 CFU of S. aureus intraperitoneally. Four hours post infection they received a dose of 8 mg/kg peptide IP. The infection was allowed to progress for 4 or 24 hours after which mice were euthanaised and plate counts of staphylococci surviving in the peritoneum were determined. Bacterial loads in the peritoneal lavage from individual mice after 24 hours of infection are shown (solid circles). The solid line represents the arithmetic mean for each group.
# as §3, with “19.” for “18.”
# To further confirm this, a mouse model of aggressive bacterial infection, widely used to assess antibiotic efficacy, was utilized. Mice were treated with 1.6×10^10 CFU IP. Four hours post infection they received a dose of 4 mg/kg peptide IP. The infection was allowed to progress for 20 more hours, for a total infection time of 24 hours.
# These immunomodulatory activities led to protection against infections by S. aureus. Briefly a mouse model of aggressive bacterial infection, widely used to assess antibiotic efficacy, was utilized. […] The infection was allowed to progress for 4 or 24 hours after which mice were euthanaised and plate counts of staphylococci surviving in the peritoneum were determined.
# [10] = tested on: MCP-1 release by human PBMC; experiment: Chemokine induction in PBMC (capture ELISA); assay type: cell-based; details: background (204) subtracted
# Summary of the method: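 Heparinized blood from healthy volunteers; Ficoll-isolated human PBMC (7.5×10^5) treated with peptides at 20 or 100 μg/ml for 24 hours at 37° C, 5% CO2. Cell-free supernatants assayed for MCP-1 by capture ELISA.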
# [11] = tested on: MCP-3 release by human PBMC; experiment: Chemokine induction in PBMC (capture ELISA); assay type: cell-based; details: background (6) subtracted
# Summary of the method: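 Human PBMC from healthy donors (Ficoll-isolated), 7.5×10^5 cells at 0.75–1×10^6 cells/ml, treated with peptides at 20 or 100 μg/ml for 24 h at 37° C, 5% CO2. MCP-3 in cell-free supernatants measured by capture ELISA.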
# [12] = tested on: CXCL1 (Gro-α) release by human PBMC; experiment: Chemokine induction in PBMC (capture ELISA); assay type: cell-based; details: background (196) subtracted
# Summary of the method: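 Human PBMC from healthy donors' heparinised blood (Ficoll), 7.5×10^5 cells treated with 20 or 100 μg/ml peptide for 24 h at 37° C, 5% CO2. Cell-free supernatants assayed for CXCL1 by capture ELISA.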
# [13] = tested on: ESBL E. coli clinical strain 64771; assay type: cell-based; details: ESBL clinical strain 64771
# Summary of the method: (§4)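 Broth microdilution in Mueller Hinton medium, peptides serially diluted in 0.01% acetic acid with 0.2% BSA in polypropylene plates. Inoculum 2-7×10^5 CFU/ml, incubated overnight at 37° C. MIC is the lowest concentration with no visible growth.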
# [14] = tested on: ESBL Klebsiella pneumonia clinical strain 63575; assay type: cell-based
# Summary of the method: as §4
# [15] = tested on: multidrug resistant Pseudomonas maltophilia ATCC13637; assay type: cell-based
# Summary of the method: as §4
SMILES,MIC [2] [µM],MIC [3] [µM],MIC [8] [µM],MIC (ESBL E. cloacae) [µM],MIC [9] [µM],mice protected (S. aureus) [%],Chemokine induction MCP-1 ([10]; 20 μg/ml peptide) [pg/mL],Chemokine induction MCP-1 ([10]; 100 μg/ml peptide) [pg/mL],Chemokine induction MCP-3 ([11]; 20 μg/ml peptide) [pg/mL],Chemokine induction MCP-3 ([11]; 100 μg/ml peptide) [pg/mL],Chemokine induction Gro-α ([12]; 20 μg/ml peptide) [pg/mL],Chemokine induction Gro-α ([12]; 100 μg/ml peptide) [pg/mL],MIC [13] [µM],MIC [14] [µM],MIC [15] [µM],other results
"CC[C@H](C)[C@H](N)C(=O)N[C@@H](CC(C)C)C(=O)N1CCC[C@H]1C(=O)N[C@@H](Cc1c[nH]c2ccccc12)C(=O)N[C@@H](Cc1c[nH]c2ccccc12)C(=O)N[C@@H](Cc1c[nH]c2ccccc12)C(=O)N1CCC[C@H]1C(=O)N[C@@H](Cc1c[nH]c2ccccc12)C(=O)N[C@@H](Cc1c[nH]c2ccccc12)C(=O)N1CCC[C@H]1C(=O)N[C@@H](Cc1c[nH]c2ccccc12)C(=O)N[C@@H](CCCNC(=N)N)C(=O)N[C@@H](CCCNC(=N)N)C(N)=O [HH235, ILPWWWPWWPWRR] (H-ILPWWWPWWPWRR-NH2; N-terminus assumed)",–,–,–,–,–,–,–,–,–,–,–,–,–,–,–,MIC P. aerug [1]: >84 µg/mL; MIC E. faecalis [2]: 84 µg/mL; MIC E. coli (Escherichia coli UB1005): >84 µg/mL; MIC S. aureus [3]: 20 µg/mL; MIC S. epi. [4]: 5 µg/mL; MIC C. albicans [5]: 84 µg/mL; MIC S. typhi [6]: >84 µg/mL; ability to inhibit TNFα responses compared with indolicidin [7]: slightly better or equivalent than indolicidin
"CC[C@H](C)[C@H](NC(=O)[C@H](Cc1c[nH]c2ccccc12)NC(=O)[C@H](CCCCN)NC(=O)[C@H](Cc1c[nH]c2ccccc12)NC(=O)[C@H](Cc1c[nH]c2ccccc12)NC(=O)[C@H](CCCNC(=N)N)NC(=O)[C@@H](N)CCCCN)C(=O)N[C@@H](CCCNC(=N)N)C(=O)N[C@@H](Cc1c[nH]c2ccccc12)C(N)=O [HHC10, KRWWKWIRW] (H-KRWWKWIRW-NH2; N-terminus assumed)",12,3,1.5,3,0.8,40,48,3210,-1,49,-11,2,1.5,6,0.4,–
"N=C(N)NCCC[C@H](NC(=O)[C@H](CCCNC(=N)N)NC(=O)[C@H](Cc1c[nH]c2ccccc12)NC(=O)[C@H](Cc1c[nH]c2ccccc12)NC(=O)[C@H](CCCCN)NC(=O)[C@H](Cc1c[nH]c2ccccc12)NC(=O)[C@H](Cc1c[nH]c2ccccc12)NC(=O)[C@H](CCCNC(=N)N)NC(=O)[C@@H](N)CCCCN)C(N)=O [HHC36, KRWWKWWRR] (H-KRWWKWWRR-NH2; N-terminus assumed)",43,3,1.4,11,0.3,60,38,168,1,1,19,-8,3,22,1.4,–
